Here are results for 2 compounds from patent publication US20130053347A1, “PRO-DRUGS OF AMARYLLIDACEAE ISOCARBOSTYRIL PRODUCTS AND THEIR USE AGAINST BRAIN TUMORS” (Universite Libre de Bruxelles, priority 2010, published 2013).

As a reminder, the IC50 is the concentration that inhibits the measured activity by half.

Some results are limits rather than exact numbers.

Data set [1] has as its system human NSCLC A549 cells grafted into the lungs of nude mice. The experiment in a line: NSCLC model, cells grafted into the lungs, survival. The data set is classed as in vivo. The note with it: A549 in lungs; Taxol 20 mg/kg, Narciclasine 1 mg/kg once per week during 5 consecutive weeks. The procedure:
(§1) FIG. 6: anti-tumor effects of Narciclasine versus taxol in human NSCLC (non small cell lung carcinoma) models. The left panel illustrates the lungs of mice bearing lung tumor (tumor tissue is the white nodular one; pink part is the residual normal lung tissue) and hematoxilin eosin staining of the lung tumor (middle) and the brain metastasis that developed into the brain of nude mice after the graft of A549 human NSCLC cells into the lung (lower panel). Anti-tumor effects were evaluated in terms of animal survival when cells are grafted into the lungs (upper right graph) or directly into the brain (right lower panel). Taxol (dose: 20 mg/kg) and Narciclasine (dose: 1 mg/kg) were administered once per week during 5 consecutive weeks.
(§2) We tested also the anti-cancer effects of Narciclasine in non small cell lung carcinoma models (NSCLC). When human NSCLC A549 cells are grafted into the lungs of nude mice, those later develop lung tumors leading after to liver and brain metastases in 80% of the cases (Mathieu A et al, Cancer 2004).

For data set [2], the system named is mice. The settings on record: cited from earlier work.
Data set [3] concerns VM-48 human brain metastatic melanoma cells grafted into the brain of nude mice. The experiment in a line: melanoma brain metastasis model, survival. The data set is classed as in vivo. The note with it: VM-48 in brain; intravenously 1 mg/kg twice a week during 3 consecutive weeks.
Data set [4] relates to human melanoma VM-21 cells grafted subcutaneously. The experiment in a line: subcutaneous melanoma model, survival. The data set is classed as in vivo. The note with it: VM-21 subcutaneous, nude mice; Narciclasine per os. How it is done:
FIG. 7: anti-tumor effects of Narciclasine in human melanoma models. The left panel illustrates typical hematoxilin eosin staining of subcutaneous tumor and lung metastasis developed when VM-21 human melanoma cells are grafted subcutaneously in nude mice and their corresponding survival analysis. Narciclasine was administered per os while dacarbazine was administered intra-peritoneally. Doses and schedules appear on the graphs (ai X bw meaning “a” administrations per week during “b” weeks). The right panel illustrates typical hematoxilin eosin staining of human melanoma brain tumor developed into the brain when VM-48 human brain metastatic melanoma cells are grafted into the brain of nude mice and their corresponding survival analysis. Narciclasine and temozolomide (TMZ) were administered per os. Doses and schedules appear on the graphs (same legend than left panel).
Similarly, we grafted subcutaneously human melanoma VM-21 cells. This graft leads to tumor formation and further lung metastases as illustrated in FIG. 7. […] VM-48 cells have been isolated from a human brain metastasis of melanoma. We grafted those cells in their original environment, i.e. the brain to mimic human melanoma brain metastasis (FIG. 7).

Data set [5] concerns A549 cells grafted directly into the brain of nude mice. The experiment in a line: NSCLC cells grafted into the brain, survival. The data set is classed as in vivo, human. The note with it: A549 in brain; Taxol 20 mg/kg, Narciclasine 1 mg/kg once per week during 5 consecutive weeks. How it is done:
as §1, §2

The conditions of data set [6]: cited from earlier work.
Data set [7] has as its system Hs683 human glioblastoma cells grafted into the brain of nude mice. The experiment in a line: human glioblastoma orthotopic model, survival. The data set is classed as in vivo. The settings on record: 1 mg/kg once or twice per week during 5 consecutive weeks, intravenous or oral; two glioblastoma models (Hs683; GL-19 in FIG. 5). The procedure: FIG. 5: anti-tumor effects of Narciclasine versus temozolomide in human primary brain tumor models. A and B: hematoxilin eosin staining of the brain tumors that developed into the brain of nude mice after intracranial graft of Hs683 and GL-19 human glioblastoma cells (NB: normal brain). Anti-tumor effects were evaluated in terms of animal survival in C and D. TMZ: temozolomide; schedule of administration is mentioned between brackets (“aXb” meaning “a” administrations per week during “b” weeks).
We evaluated the anti-cancer effects of Narciclasine at non toxic dose in two human glioblastoma (primary brain tumors) models (Hs683-model) that we grafted orthotopically directly into the brain of nude mice. […] The therapeutic schedule used here is even lower (one or two injections per week instead of 5 per week) and the administration route was intravenous or oral. […] The few promising NCI results have been obtained at doses higher than 1 mg/kg administered intraperitoneally or subcutaneously.

The subject of data set [8] is cancer cells. The settings on record: cited from earlier work.

Regarding `O=C1N[C@@H]2C(=C[C@H](O)[C@@H](O)[C@H]2O)c2cc3c(c(O)c21)OCO3` [Narciclasine], the “survival of the animals” value in data set [1] was “did not bring any increase in the survival”. In data set [2] (mice), the “maximal dose that can be administered without being toxic” value is “around 1 mg/kg” and the safe chronical dose is 1 mg/kg. The toxicity result in data set [2] (rodents, 1 mg/kg 5 times per week during three weeks at least) is “without any toxicity”. For the same compound, the animal survival entry in data set [3] was “significant increase in terms of animal survival”. The survival benefit result in data set [4] is listed as “could not bring any survival benefit”. In addition, the survival benefits entry in data set [5] was “highly and significantly effective”. The plasmatic concentrations in data set [6] (5 mg/kg dose, for few hours only) is above 50 nM. Also, in data set [6] (mouse, in vivo, po), the oral bioavailability is recorded as 32%. In data set [7], the “therapeutic benefit in terms of survival” value is “significant and comparable therapeutic benefits”. Further, the IC50 in data set [8] is 50 nM.

For `CC(=O)O[C@H]1C(=O)[C@@]2(C)[C@H]([C@H](OC(=O)c3ccccc3)[C@]3(O)C[C@H](OC(=O)[C@H](O)[C@@H](NC(=O)c4ccccc4)c4ccccc4)C(C)=C1C3(C)C)[C@]1(OC(C)=O)CO[C@@H]1C[C@@H]2O` [taxol], the “survival of the animals” value in data set [1] is recorded as “did significantly”. In addition, in data set [5], the survival benefits entry was “became inefficient”.
